Patent US20250059174A1, “Pharmaceutical Compounds and Compositions as C-Kit Kinase Inhibitors” (Enanta Pharmaceuticals, Inc., priority 2023, published 2025)

Columns and labels:
[1] = molecular target: Recombinant human c-KIT kinase (Homo sapiens (Human), UniProt P10721); test: c-KIT kinase chemiluminescence assay (ADP-Glo); assay type: biochemical; conditions: ATP 50 μM
In short: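 Recombinant human c-KIT preincubated 30 min at RT in 40 mM Tris pH 7.5, 20 mM MgCl2, 0.1 mg/mL BSA, 50 μM DTT, then reacted 2 h at RT with ATP and polyEY substrate. ADP-Glo luminescence readout; activity normalized to high/low controls, IC50 and Hill coefficient from inhibitor-versus-normalized-response fit.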

M-07e cells = test: M-07e cellular assay (SCF-mediated cell proliferation); assay type: cell-based; conditions: Homo sapiens, 72 hours, CellTiter Glo
In short: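 Readout came from CellTiter Glo after 72 h of compound treatment in SCF (EC90)-stimulated, pre-starved M-07e cells at 37 °C.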

Chain of Recombinant human c-KIT kinase (P10721 26-976): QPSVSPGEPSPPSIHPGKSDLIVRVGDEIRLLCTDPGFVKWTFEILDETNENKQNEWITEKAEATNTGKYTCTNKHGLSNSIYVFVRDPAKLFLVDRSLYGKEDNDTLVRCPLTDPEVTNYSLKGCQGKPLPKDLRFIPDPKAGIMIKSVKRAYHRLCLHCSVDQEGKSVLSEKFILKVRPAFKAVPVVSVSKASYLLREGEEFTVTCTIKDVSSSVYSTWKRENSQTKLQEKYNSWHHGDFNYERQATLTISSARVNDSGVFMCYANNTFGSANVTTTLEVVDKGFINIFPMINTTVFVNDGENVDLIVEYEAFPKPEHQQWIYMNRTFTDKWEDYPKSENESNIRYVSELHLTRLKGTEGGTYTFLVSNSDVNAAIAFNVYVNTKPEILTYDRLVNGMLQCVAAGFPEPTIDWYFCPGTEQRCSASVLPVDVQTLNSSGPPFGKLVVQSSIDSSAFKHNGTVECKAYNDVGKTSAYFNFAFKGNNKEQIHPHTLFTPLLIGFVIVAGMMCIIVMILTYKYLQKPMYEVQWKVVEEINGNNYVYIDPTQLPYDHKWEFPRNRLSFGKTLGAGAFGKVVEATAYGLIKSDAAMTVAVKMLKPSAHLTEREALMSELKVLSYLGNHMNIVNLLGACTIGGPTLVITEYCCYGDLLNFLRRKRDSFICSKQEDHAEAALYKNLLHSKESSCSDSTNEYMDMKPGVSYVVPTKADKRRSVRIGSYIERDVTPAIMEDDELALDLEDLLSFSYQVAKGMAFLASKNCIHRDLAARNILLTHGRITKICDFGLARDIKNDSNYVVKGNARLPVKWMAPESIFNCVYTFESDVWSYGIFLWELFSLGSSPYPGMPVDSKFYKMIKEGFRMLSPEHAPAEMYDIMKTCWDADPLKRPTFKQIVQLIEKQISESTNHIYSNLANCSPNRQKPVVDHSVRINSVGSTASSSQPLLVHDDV

IC50 [1] [nM] | SMILES | EC50 (M-07e cells) [nM]
> 1000 | Cc1ccc(-c2noc([C@H]3C[C@@H]3F)n2)cc1NC(=O)c1cnc(-c2cccc(NC(=O)OC(C)(C)C)n2)o1 [Example 306] | > 1000
100 to 1000 | Cc1ccc(-c2noc([C@H]3C[C@@H]3F)n2)cc1NC(=O)c1cnc(-c2ccc3c(c2)C(C)C(=O)N3)o1 (some centres unmarked) [Example 308-61] | 100 to 1000
100 to 1000 | Cc1ccc(-c2noc([C@H]3C[C@@H]3F)n2)cc1NC(=O)c1cnn2ccc(C#N)cc12 [Example 127] | 100 to 1000
< 100 | Cc1ccc2c(C(=O)Nc3cc(-c4noc([C@H]5C[C@@H]5F)n4)ccc3C)cnn2c1 [Example 61] | < 100
100 to 1000 | Cc1ncc(-c2noc(C3CN(CC(F)F)C3)n2)cc1NC(=O)c1cnn2ccc(N3CC4(C3)CC(O)(C(F)F)C4)cc12 [Example 281-130] | 100 to 1000
< 100 | Cc1ncc(-c2noc([C@H]3C[C@@](C)(O)C3)n2)cc1NC(=O)c1cnn2ccc(N3CC4(C3)CC(O)(C(F)F)C4)cc12 [Example 281-36] | 100 to 1000
100 to 1000 | Cc1ccc(-c2noc(C3CN(C(=O)OC4CC4)C3)n2)cc1NC(=O)c1cnc(-c2ccc3c(c2)CC(=O)N3)o1 [Example 308-63] | 100 to 1000
100 to 1000 | Cc1ccc(-c2noc([C@H]3C[C@@H]3F)n2)cc1NC(=O)c1cnn2ccc(-c3ccc(F)cc3)cc12 [Example 148] | 100 to 1000
100 to 1000 | Cc1ccc(-c2noc([C@H]3C[C@@H]3F)n2)cc1NC(=O)c1cnn2cc(-c3cnnn3CCO)ccc12 [Example 120] | 100 to 1000
< 100 | COC1(OC)CC2(CN(c3ccn4ncc(C(=O)Nc5cc(-c6noc([C@H]7C[C@@H]7F)n6)ccc5C)c4c3)C2)C1 [Example 226] | < 100
< 100 | Cc1ccc(-c2noc([C@H]3C[C@@H]3F)n2)cc1NC(=O)c1cnn2ccc(-c3ccn(C(F)F)n3)cc12 [Example 135] | 100 to 1000
> 1000 | Cc1ncc(-c2noc(C3CN(C(=O)[C@H]4C[C@@H]4F)C3)n2)cc1NC(=O)c1cnn2ccc(N3CC4(COC4)C3)cc12 [Example 281-80] | > 1000
100 to 1000 | Cc1ccc(-c2noc([C@H]3C[C@@H]3F)n2)cc1NC(=O)c1cnc(-c2ccc3c(c2)O[C@@H](C)CN3)o1 [Example 308-53] | 100 to 1000
< 100 | Cc1cc(F)c(-c2noc([C@H]3C[C@@H]3F)n2)cc1NC(=O)c1cnn2ccc(N3CC4(C3)CN(S(C)(=O)=O)C4)cc12 [Example 281-24] | 100 to 1000
< 100 | Cc1ccc(-c2noc([C@@H]3C[C@@H]4[C@H](C3)C4(F)F)n2)cc1NC(=O)c1cnn2ccc(N3CC4(COC4)C3)cc12 [Example 279] | < 100
< 100 | Cc1ccc(-c2noc([C@H]3C[C@@H]3F)n2)cc1NC(=O)c1cnc2n1C(C)c1ccccc1-2 (some centres unmarked) [Example 102] | 100 to 1000
> 1000 | Cc1ncc(-c2nnn(C3CN(C(=O)OC(C)(C)C)C3)n2)cc1NC(=O)c1cnn2ccc(N3CC4(C3)CC(O)(C(F)F)C4)cc12 [Example 312-9] | 100 to 1000
< 100 | Cc1ccc(-c2noc([C@H]3C[C@@H]3F)n2)cc1NC(=O)c1cnn2cc(-c3c(C)nn(CC(C)(C)O)c3C)ccc12 [Example 144] | < 100
< 100 | Cc1ccc(-c2noc([C@H]3C[C@@H]3F)n2)cc1NC(=O)c1cnn2ccc(-c3nnn(CC(C)(C)O)n3)cc12 [Example 132] | < 100
< 100 | Cc1ccc(-c2cnc(C3CC3)cn2)cc1NC(=O)c1cnn2ccc(N3CC4(COC4)C3)cc12 [Example 341] | < 100
100 to 1000 | Cc1ncc(-c2noc(C3CC(F)(F)C3)n2)cc1NC(=O)c1cnn2cc(-c3cn(C(F)F)nn3)ccc12 [Example 132-7] | 100 to 1000
< 100 | Cc1ccc(-c2noc([C@H]3C[C@@H]3F)n2)cc1NC(=O)c1cnc(-c2ccc3cnn(C)c3c2)o1 [Example 308-32] | 100 to 1000
> 1000 | Cc1ccc(-c2noc([C@H]3C[C@@H]3F)n2)cc1NC(=O)c1cnc(-c2c(C)nn(CC(C)(C)O)c2C)o1 [Example 308-7] | > 1000
< 100 | Cc1ccc(-c2noc([C@H]3C[C@@H]3F)n2)cc1NC(=O)c1cnc(-c2ccc3[nH]ncc3c2)o1 [Example 292] | < 100
100 to 1000 | Cc1ncc(-c2ncc(C(F)(F)F)cn2)cc1NC(=O)c1cnn2ccc(N3CC4(C3)CC(O)(C(F)F)C4)cc12 [Example 328] | < 100
> 1000 | Cc1ccc(-c2noc([C@H]3C[C@@H]3F)n2)cc1NC(=O)c1cnc(-c2ccccn2)o1 [Example 296] | > 1000

IC50 [1] [nM] | SMILES | EC50 (M-07e cells) [nM]
100 to 1000 | Cc1ccc(-c2noc(C34COC(C)(C3)C4)n2)cc1NC(=O)c1cnn2ccc(N3CC4(COC4)C3)cc12 [Example 281-6] | < 100
100 to 1000 | Cc1ccc(-c2noc(N3CC(F)(F)C3)n2)cc1NC(=O)c1cnn2ccc(N3CC4(COC4)C3)cc12 [Example 281-81] | < 100
100 to 1000 | Cc1ncc(-c2noc(C3CC(F)(F)C3)n2)cc1NC(=O)c1cnn2ccc(N3CC4(COC4)C3)cc12 [Example 281-67] | < 100
100 to 1000 | Cc1ccc(-c2noc([C@H]3C[C@@H]3F)n2)cc1NC(=O)c1cnn2ccc(-c3nn[nH]n3)cc12 [Example 129] | > 1000
100 to 1000 | Cc1ncc(-c2noc([C@H]3CC3(F)F)n2)cc1NC(=O)c1cnn2ccc(N3CC4(C3)CC(O)(C(F)F)C4)cc12 [Example 281-89] | < 100
100 to 1000 | Cc1ccc(-c2noc([C@H]3C[C@@H](OC(F)F)C3(C)C)n2)cc1NC(=O)c1cnn2ccc(N3CC4(CCN(CC(F)(F)F)C4)C3)cc12 [Example 254] | 100 to 1000
< 100 | Cc1ccc(-c2noc([C@H]3C[C@@H]3F)n2)cc1NC(=O)c1cnc(-c2cccc3cn[nH]c23)o1 [Example 308-23] | > 1000
< 100 | Cc1c(F)cc(-c2noc([C@H]3C[C@@H]3F)n2)cc1NC(=O)c1cnn2ccc(N3CC4(COC4)C3)cc12 [Example 281-54] | < 100
< 100 | Cc1ccc(-c2noc([C@H]3C[C@@H]3F)n2)cc1NC(=O)c1cnn2cc(Br)ccc12 [Example 41, 6-bromo-N-(5-(5-((1R,2S)-2-fluorocyclopropyl)-1,2,4-oxadiazol-3-yl)-2-methylphenyl)pyrazolo [1,5-a]pyridine-3-carboxamide] | 100 to 1000
100 to 1000 | Cc1ccc(-c2noc(C3CC4(C3)CN(C(=O)[C@H]3C[C@@H]3F)C4)n2)cc1NC(=O)c1cnn2ccc(N3CC4(C3)CC(O)(C(F)F)C4)cc12 [Example 281-107] | 100 to 1000
< 100 | COC(=O)N1CCC(c2nc(-c3ccc(C)c(NC(=O)c4cnn5ccc(N6CC7(COC7)C6)cc45)c3)no2)C1 (centres unmarked) [Example 281-131] | < 100
< 100 | Cc1ccc(-c2noc([C@H]3C[C@@H]3F)n2)cc1NC(=O)c1cnc(-c2ccc3[nH]nc(C)c3c2)o1 [Example 308-21] | < 100
> 1000 | Cc1ncc(-c2ncc(C3CC3)cn2)cc1NC(=O)c1cnn2ccc(-c3c(C)nc(N)nc3C)cc12 [Example 371-1] | 100 to 1000
< 100 | Cc1ccc(-c2ccc(C3CC3)cn2)cc1NC(=O)c1cnn2ccc(N3CC4(C3)CC(O)(C(F)F)C4)cc12 [Example 351] | < 100
< 100 | Cc1ccc(-c2noc([C@H]3C[C@@H]3F)n2)cc1NC(=O)c1cnn2ccc(N3CC(O)(C(F)(F)F)C3)cc12 [Example 180] | < 100
< 100 | COC(=O)N1CC(c2nc(-c3ccc(Cl)c(NC(=O)c4cnn5cc(-c6cn(C(F)F)nn6)ccc45)c3)no2)C1 [Example 132-17] | < 100
100 to 1000 | Cc1ccc(-c2noc(C3CN(C(=O)C4CC4)C3)n2)cc1NC(=O)c1cnn2ccc(N3CC4(COC4)C3)cc12 [Example 281-46] | 100 to 1000
100 to 1000 | Cc1ccc(-c2noc([C@H]3C[C@@H]3F)n2)cc1NC(=O)c1cnc(-c2ccc3c(c2)NC(=O)CO3)o1 [Example 308-52] | 100 to 1000
< 100 | Cc1ccc(-c2noc([C@H]3C[C@@H]3F)n2)cc1NC(=O)c1cnn2ccc(N3CC4CC3C4(C)C)cc12 (some centres unmarked) [Example 228] | 100 to 1000
> 1000 | CC(=O)N1CC2(CC(c3nc(-c4cnc(C)c(NC(=O)c5cnn6ccc(N7CC8(C7)CC(O)(C(F)F)C8)cc56)c4)no3)C2)C1 [Example 281-73] | > 1000
< 100 | Cc1ccc(-c2noc([C@H]3C[C@@H]3F)n2)cc1NC(=O)c1cnn2cc(-c3cn(CCO)nn3)ccc12 [Example 109] | < 100
< 100 | Cc1ccc(-c2noc([C@H]3C[C@@H]3F)n2)cc1NC(=O)c1cnn2ccc(C3CC3)cc12 [Example 55] | 100 to 1000
100 to 1000 | Cc1ncc(-c2noc([C@@H]3CN(C(=O)C4(F)CC4)[C@H]3C)n2)cc1NC(=O)c1cnn2ccc(N3CC4(C3)CC(O)(C(F)F)C4)cc12 [Example 281-11] | 100 to 1000
> 1000 | O=C(Nc1cc(-c2ccc(C3CC3)cn2)ccc1Cl)c1cnn2ccc(N3CC4(COC4)C3)cc12 [Example 350] | > 1000
100 to 1000 | Cc1ccc(-c2nc3n(n2)CCCC3)cc1NC(=O)c1cnn2ccc(N3CC4(C3)CC(O)(C(F)F)C4)cc12 [Example 321] | 100 to 1000
< 100 | O=C(Nc1cc(-c2noc(C3CC(F)(F)C3)n2)ccc1Cl)c1cnn2ccc(N3CC4(C3)CC(O)(C(F)F)C4)cc12 [Example 281-30] | < 100
